22 compounds from patent US12024506B2, “Compounds” (Oxford University Innovation Limited, priority 2018, dated 2024) can be followed below.

Molecules are shown by their SMILES.

For assay [1], the target named is T1, GST-human KRas166 (G12V) GPPNHP (Homo sapiens, UniProt P01116, G12V).
T1 construct: made in house; host or cells: E. coli C41(DE3)
Kind of assay: KRas small-molecule screening by SPR (Biacore T200). The following applies: compound 100 uM, 5% DMSO buffer; immobilised GST-KRas166 (G12V) GPPNHP. In kind it is binding. The gist of the method: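 Biacore T200 screen: compounds at 100 uM final in 5% DMSO buffer (100 mM NaCl, 5 mM MgCl2) over GPPNHP-bound GST-KRas166 G12V captured by anti-GST antibody (10,000–15,000 RU) versus GST-only channel. Expected 1:1 Rmax 63 RU; DMSO solvent correction applied.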
A general note: In SPR one partner is held on a chip, and binding of the other changes the refractive index at the surface.

Assay [2] has as its system H358 cells (ATCC CRL-5807). Put plainly: Cell viability assay 1 (CellTiter-Glo), H358 cells. In kind it is cell-based. The following applies: Homo sapiens, NCI-H358, 48 h, first value of the cell, read-out: Cell Viability H358 (concentration that decreases cell viability by 50%). As to the method:
(§1) Cells (A549 ATCC CCL-185) are cultured in Dulbecco's Modified Eagle's Medium plus 10% foetal calf serum and 2 mM L-glutamine at 37° C., 5% CO2. Cells are plated onto white clear bottom 96-well plates (5000 cells/well in 200 μl media) and left to adhere overnight at 37° C., 5% CO2. Next day, test compound (1 μl at 200× concentration in 100% DMSO) is added to give final test compound concentration 1× in 0.5% DMSO. After 48 h of incubation at 37° C., 5% CO2, 20 μl CellTiter-Glo reagent (Promega G7572) is added into each well. Plates are incubated at room temperature with shaking for 30 min and then luminescence is read using a PheraStar plate reader. The concentration of compounds that decrease cell viability by 50% is calculated from dose response curves generated using Dotmatics data analysis software.
In the H358 cell assay, cells (ATCC CRL-5807) are cultured in RPMI-1640 medium plus 10% foetal calf serum and 2 mM L-glutamine at 37° C., 5% CO2.

Assay [3] deals with DLD1 cells (ATCC CCL-221). Kind of assay: Cell viability assay 1 (CellTiter-Glo), DLD1 cells. It counts as cell-based. The following applies: Homo sapiens, DLD-1 cells, 48 h, second value of the cell, read-out: Cell Viability DLD-1 (concentration that decreases cell viability by 50%). As to the method: as §1
In the DLD1 cell assay, cells (ATCC CCL-221) are cultured in RPMI-1640 medium plus 10% foetal calf serum and 2 mM L-glutamine at 37° C., 5% CO2.

For the compound `COc1cccc(-c2cccc3c2OC(CNCc2ccc(OCCN(C)C)cc2)CO3)n1` (stereo not shown) [Example 26, {2-[4-({[8-(6-Methoxy-pyridin-2-yl)-2,3-dihydro-benzo[1,4]dioxin-2-ylmethyl]-amino}-methyl)-phenoxy]-ethyl}-dimethyl-amine], the “SPR Response Units” value in assay [1] is 53 Response Units. Further, the IC50 in assay [2] is 95 µM; in assay [3], 4 µM.

`COc1cccc(-c2cccc3c2OC(CN(Cc2ccc(OCCN(C)C)cc2)Cc2cccnc2)CO3)n1` (stereo not shown) [Example 31, {2-[4-({[8-(6-Methoxy-pyridin-2-yl)-2,3-dihydrobenzo[1,4]dioxin-2-ylmethyl]-pyridin3-ylmethyl-amino}-methyl)-phenoxy]-ethyl}-dimethyl-amine]: the “SPR Response Units” value in assay [1] came out at 119 Response Units. In addition, the IC50 is 18 µM in assay [2] and 3 µM in assay [3].

In the case of `COc1cccc(-c2cccc3c2OC(CN(Cc2ccc(OCCN(C)C)cc2)CC2CCOCC2)CO3)n1` (stereo not shown) [Example 32, [2-(4-{[[8-(6-Methoxy-pyridin-2-yl)-2,3-dihydro-benzo[1,4]dioxin-2-ylmethyl]-(tetrahydro-pyran-4-ylmethyl)-amino]-methyl}-phenoxy)-ethyl]-dimethyl-amine], in assay [1], the “SPR Response Units” value was 85 Response Units. In addition, the IC50 turned out to be 17 µM in assay [2] and 7 µM in assay [3].

For `COc1cccc(-c2cccc3c2OC(CNC(=O)c2ccc(OCCN(C)C)cc2F)CO3)n1` (stereo not shown) [Example 38, 4-(2-Dimethylamino-ethoxy)-2-fluoro-N-[8-(6-methoxy-pyridin-2-yl)-2,3-dihydro-benzo[1,4]dioxin-2-ylmethyl]-benzamide], in assay [1], the “SPR Response Units” value was 335 Response Units. For the same compound, the results for the IC50 in assay [2] and in assay [3] were 58 µM and 3.6 µM, respectively.

For the compound `COc1cccc(-c2cccc3c2OC(CNC(=O)c2ccc(OCCN(C)C)cc2)CO3)n1` (stereo not shown) [Example 39, 4-(2-Dimethylamino-ethoxy)-N-[8-(6-methoxy-pyridin-2-yl)-2,3-dihydro-benzo[1,4]dioxin-2-ylmethyl]-benzamide], in assay [1], the “SPR Response Units” value stood at 127 Response Units. In addition, the IC50 came to 79 µM in assay [2] and 5 µM in assay [3].

Regarding `COc1cccc(-c2cccc3c2O[C@H](CNC(=O)c2ccc(OCCN(C)C)cc2)CO3)n1` [Example 40, 4-(2-Dimethylamino-ethoxy)-N-[(R)-8-(6-methoxy-pyridin-2-yl)-2,3-dihydro-benzo[1,4]dioxin-2-ylmethyl]-benzamide], in assay [1], the “SPR Response Units” value is 58 Response Units. Also, the IC50 in assay [2] came out at 52 µM; in assay [3], 12 µM.

`COc1cccc(-c2cccc3c2O[C@@H](CNC(=O)c2ccc(OCCN(C)C)cc2)CO3)n1` [Example 41, 4-(2-Dimethylamino-ethoxy)-N-[(S)-8-(6-methoxy-pyridin-2-yl)-2,3-dihydrobenzo [1,4]dioxin-2-ylmethyl]-benzamide]: in assay [1], the “SPR Response Units” value is listed as 60 Response Units. Further, the IC50 in assay [2] is 48 µM; in assay [3], 20 µM.

With `COc1cccc(-c2cccc3c2OC(CNC(=O)c2ccc(CN4CCN(C)CC4)o2)CO3)n1` (stereo not shown) [Example 43, 5-(4-Methyl-piperazin-1-ylmethyl)-furan-2-carboxylic acid [8-(6-methoxy-pyridin-2-yl)-2,3-dihydro-benzo[1,4]dioxin-2-ylmethyl]-amide], the “SPR Response Units” value in assay [1] was found to be 105 Response Units. The IC50 in assay [2] was above 100 µM; in assay [3] it was 19 µM.

Consider `COc1cccc(-c2cccc3c2OC(CNC(=O)c2coc(CN4CCOCC4)c2)CO3)n1` (stereo not shown) [Example 46, 5-Morpholin-4-ylmethyl-furan-3-carboxylic acid [8-(6-methoxy-pyridin-2-yl)-2,3-dihydro-benzo[1,4]dioxin-2-ylmethyl]-amide], for which the “SPR Response Units” value in assay [1] is 148 Response Units. Besides, the IC50 in assay [2] and in assay [3] was above 100 µM throughout.

As for `COc1nc(-c2cccc3c2OCCO3)ccc1Nc1cccc(CN(C)C)c1` [Example 55, [6-(2,3-dihydro-benzo[1,4]dioxin-5-yl)-2-methoxy-pyridin-3-yl]-(3-dimethylaminomethyl-phenyl)-amine], the “SPR Response Units” value in assay [1] was found to be 130 Response Units. The IC50 in assay [2] was 8 µM; in assay [3], 9.2 µM.

Take `COc1nc(-c2cccc3c2OCCO3)ccc1Nc1ccc(CN(C)C)cn1` [Example 57, [6-(2,3-Dihydro-benzo[1,4]dioxin-5-yl)-2-methoxy-pyridin-3-yl]-(5-dimethylaminomethyl-pyridin-2-yl)-amine]: the “SPR Response Units” value in assay [1] was determined as 77 Response Units. The IC50 in assay [2] was determined as 29 µM; in assay [3] it was 20.2 µM.

As for `COc1nc(-c2cccc3c2OCCO3)ccc1Nc1ccc(Cn2ccnc2)cc1` [Example 58, [6-(2,3-Dihydro-benzo[1,4]dioxin-5-yl)-2-methoxy-pyridin-3-yl]-(4-imidazol-1-ylmethyl-phenyl)-amine], the “SPR Response Units” value in assay [1] was 269 Response Units. Besides, the values for the IC50 in assay [2] and in assay [3] were 19 µM and 16.2 µM, respectively.

As to `COc1nc(-c2cccc3c2OCCO3)ccc1Nc1cccc(CN2CCCC2)c1` [Example 60, [6-(2,3-Dihydro-benzo[1,4]dioxin-5-yl)-2-methoxy-pyridin-3-yl]-(3-pyrrolidin-1-ylmethyl-phenyl)-amine], the “SPR Response Units” value in assay [1] was 108 Response Units. Also, the IC50 in assay [2] came to 11.4 µM; in assay [3], 7.5 µM.

In the case of `COc1nc(-c2cccc3c2OCCO3)ccc1Nc1cccc(CN2CCOCC2)c1` [Example 61, [6-(2,3-Dihydro-benzo[1,4]dioxin-5-yl)-2-methoxy-pyridin-3-yl]-(3-morpholin-4-ylmethyl-phenyl)-amine], the “SPR Response Units” value in assay [1] amounted to 61 Response Units. The values for the IC50 in assay [2] and in assay [3] were 20.1 µM and 12.2 µM, respectively.

On to `COc1nc(-c2cccc3c2OCCO3)ccc1Nc1cccc(C2CCC(=O)N2)c1` (stereo not shown) [Example 62, 5-{3-[6-(2,3-Dihydro-benzo[1,4]dioxin-5-yl)-2-methoxy-pyridin-3-ylamino]-phenyl}-pyrrolidin-2-one], for which, in assay [1], the “SPR Response Units” value is recorded as 72 Response Units. Further, the results for the IC50 in assay [2] and in assay [3] were 8.6 µM and 13.7 µM, respectively.

In the case of `COc1nc(-c2cccc3c2O[C@@H](CNC(=O)C2CCOCC2)CO3)ccc1Nc1cccc(CN(C)C)c1` [Example 69], the “SPR Response Units” value in assay [1] was found to be 128 Response Units. In addition, the figures for the IC50 in assay [2] and in assay [3] were 21 µM and 21.5 µM, respectively.

Turning to `CN(C)Cc1cccc(Nc2ccc(-c3cccc4c3OCCO4)cc2)c1.O=CO` [Example 70, [4-(2,3-Dihydro-benzo[1,4]dioxin-5-yl)-phenyl]-(3-dimethylaminomethyl-phenyl)-amine. formate salt], in assay [1], the “SPR Response Units” value came out at 86 Response Units. Also, the IC50 came to 8.6 µM in assay [2] and 10.6 µM in assay [3].

Consider `COc1nc(-c2cccc3c2OCCO3)ccc1Nc1cccc([C@H]2CCCN2)c1` [Example 74, [6-(2,3-Dihydro-benzo[1,4]dioxin-5-yl)-2-methoxy-pyridin-3-yl]-((R)-3-pyrrolidin-2-yl-phenyl)-amine], for which the “SPR Response Units” value in assay [1] was found to be 110 Response Units. Moreover, the figures for the IC50 in assay [2] and in assay [3] were 3.11 µM and 6 µM, respectively.

Turning to `COc1nc(-c2cccc3c2OCCO3)ccc1Nc1cccc([C@@H]2CCCN2)c1` [Example 75, [6-(2,3-Dihydro-benzo[1,4]dioxin-5-yl)-2-methoxy-pyridin-3-yl]-((S)-3-pyrrolidin-2-yl-phenyl)-amine], the “SPR Response Units” value in assay [1] came to 112 Response Units. In addition, the values for the IC50 in assay [2] and in assay [3] were 2.6 µM and 4 µM, respectively.

`COc1nc(-c2cccc3c2OCCO3)ccc1Nc1cccc(CNC(=O)c2cccnc2)c1` [Example 79, N-{3-[6-(2,3-Dihydro-benzo[1,4]dioxin-5-yl)-2-methoxy-pyridin-3-ylamino]-benzyl}-nicotinamide]: the “SPR Response Units” value in assay [1] is reported as 47 Response Units. Besides, the IC50 in assay [2] came to 18 µM; in assay [3], 16.5 µM.

For `COc1nc(-c2cccc3c2OCCO3)ccc1Nc1ccccc1C(=O)NCC1CCNCC1` [Example 150, 2-[6-(2,3-Dihydro-benzo[1,4]dioxin-5-yl)-2-methoxy-pyridin-3-ylamino]-N-piperidin-4-ylmethyl-benzamide], the values for the IC50 in assay [2] and in assay [3] were 12 µM and 2.5 µM, respectively.

`COc1nc(-c2cccc3c2OCCO3)ccc1Nc1cccc(C(=O)NCc2cn[nH]c2)c1` [Example 183, 3-[6-(2,3-Dihydro-benzo[1,4]dioxin-5-yl)-2-methoxy-pyridin-3-ylamino]-N-(1H-pyrazol-4-ylmethyl)-benzamide]: the IC50 in assay [2] was 15.5 µM; in assay [3], 8.4 µM.
